Experimental data from ChEMBL document CHEMBL3098103, “High-throughput docking for the identification of new influenza A virus polymerase inhibitors targeting the PA-PB1 protein-protein interaction” (Bioorg Med Chem Lett, 2014).

Legend:
[1] = Inhibition of Influenza A virus H5N1 C-terminal PA interaction to N-terminal PB1 (1 to 25) expressed in human 293T cells by ELISA; type: cell-based
[2] = Cytotoxicity against MDCK cells; type: cell-based, Canis lupus familiaris; conditions: dog

Cc1ccc(-c2cc(-c3ccccc3)nc(S[C@H](C)C(=O)Nc3cccc(Cl)c3)c2C#N)cc1
IC50 [1]: 125 µM | CC50 [2]: 100 µM

Cc1ccc(-c2cc(-c3ccccc3)nc(S[C@@H](C)C(=O)Nc3ccc(C)c(C)c3)c2C#N)cc1
IC50 [1]: 180 µM | CC50 [2]: 100 µM

Cc1ccc(-c2cc(-c3ccccc3)nc(SCC(=O)Nc3cccc(Cl)c3)c2C#N)cc1
IC50 [1]: 180 µM | CC50 [2]: 100 µM

COc1ccc(-c2cc(-c3ccccc3)nc(SCC(=O)Nc3ccccc3)c2C#N)cc1OC
IC50 [1]: 125 µM | CC50 [2]: 100 µM

CCOC(=O)c1ccc(NC(=O)CSc2nc(-c3ccccc3)cc(-c3ccc(OCc4ccccc4)c(OCC)c3)c2C#N)cc1
IC50 [1]: 30 µM | CC50 [2]: 100 µM

N#Cc1c(-c2cccc(Br)c2)cc(-c2ccccc2)nc1SCC(=O)Nc1ccc(Br)cc1
IC50 [1]: 35 µM | CC50 [2]: 100 µM

Cc1ccc(-c2cc(-c3ccccc3)nc(SCC(=O)Nc3cccc(C)c3)c2C#N)cc1
IC50 [1]: 80 µM | CC50 [2]: 100 µM
